Source: PMC10992382, “Discovery of a readily heterologously expressed Rubisco from the deep sea with potential for CO2 capture” (Bioresources and Bioprocessing, 2021)

Target: T1, 7002 Rubisco (Picosynechococcus sp. PCC 7002, UniProt Q44176)
T1 construct: gene cbbL; C-terminal His6 tag on large subunit; large and small subunits co-expressed with chaperone RbcX from pET30a in E. coli BL21(DE3); hexadecamer; with Ribulose bisphosphate carboxylase small subunit
Assay: […]-CABP active-site binding assay
Settings: labelled compound; active-site titration only

T1 sequence (Q44176 whole entry): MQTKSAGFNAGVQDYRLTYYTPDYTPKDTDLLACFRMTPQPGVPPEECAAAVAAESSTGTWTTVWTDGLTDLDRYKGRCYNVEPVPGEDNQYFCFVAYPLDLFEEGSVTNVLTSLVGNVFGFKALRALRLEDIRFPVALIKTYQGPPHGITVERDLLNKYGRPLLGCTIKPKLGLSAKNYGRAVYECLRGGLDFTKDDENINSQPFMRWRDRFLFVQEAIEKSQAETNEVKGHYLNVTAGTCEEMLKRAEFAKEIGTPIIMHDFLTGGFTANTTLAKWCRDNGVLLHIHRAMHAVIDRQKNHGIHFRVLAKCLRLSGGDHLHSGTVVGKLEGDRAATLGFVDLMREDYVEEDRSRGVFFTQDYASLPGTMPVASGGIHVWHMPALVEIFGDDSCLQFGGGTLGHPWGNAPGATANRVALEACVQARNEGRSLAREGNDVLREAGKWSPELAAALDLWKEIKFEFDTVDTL
T1 sequence (Q44178 whole entry, further chain): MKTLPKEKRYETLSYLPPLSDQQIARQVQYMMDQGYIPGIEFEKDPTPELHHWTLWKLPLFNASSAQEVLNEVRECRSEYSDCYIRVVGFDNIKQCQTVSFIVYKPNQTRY

O=C(O)[C@@](O)(COP(=O)(O)O)[C@H](O)[C@H](O)COP(=O)(O)O [CABP, 2-carboxyarabinitol-1,5-diphosphate]
14C-CABP active-site binding assay: Active sites of Rubisco in purified enzymes were determined as reported
